The text below walks through data of BindingDB's records for patent US9617239 (North Carolina Central University, 2017).

The target in the assay is Beta-glucuronidase (Escherichia coli (strain K12), UniProt P05804). Description: β-Glucuronidase Activity Assay.
Chain of Beta-glucuronidase (P05804 whole entry): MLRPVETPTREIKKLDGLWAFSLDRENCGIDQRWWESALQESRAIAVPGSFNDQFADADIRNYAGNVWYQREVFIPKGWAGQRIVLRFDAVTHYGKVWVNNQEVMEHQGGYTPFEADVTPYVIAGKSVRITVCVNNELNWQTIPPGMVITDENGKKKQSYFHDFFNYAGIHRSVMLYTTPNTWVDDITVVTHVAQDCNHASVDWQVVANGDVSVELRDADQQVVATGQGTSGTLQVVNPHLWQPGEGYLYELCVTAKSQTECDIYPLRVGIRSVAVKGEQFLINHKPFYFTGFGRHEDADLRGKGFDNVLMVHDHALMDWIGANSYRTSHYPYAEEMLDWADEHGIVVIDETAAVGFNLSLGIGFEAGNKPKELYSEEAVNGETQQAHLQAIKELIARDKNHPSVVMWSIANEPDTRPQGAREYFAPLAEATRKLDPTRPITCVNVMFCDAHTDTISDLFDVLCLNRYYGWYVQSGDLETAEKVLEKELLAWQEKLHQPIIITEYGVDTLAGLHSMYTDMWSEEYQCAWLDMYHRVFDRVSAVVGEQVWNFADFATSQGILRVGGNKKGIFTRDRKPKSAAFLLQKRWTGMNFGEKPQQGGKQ

Experimental: The β-glucuronidase assay was performed by the addition of 0.5 μl of compound (or DMSO) to the well of a black 384-well plate followed by the addition of 30 μl of diluted β-glucuronidase enzyme. […] After a 30 minute incubation at room temperature, the reaction was stopped by the addition of 20 ul 1 M Na2CO3. […] Minimum (min) controls were performed using reactions with no enzyme. Maximum (max) controls were performed using no compound. 1% DMSO was maintained in all reactions. Percent inhibition was calculated using RFU data by the following formula: [1−(assay readout-average of min)/(Average of Max-Average of Min)]×100

Consider `O=S(=O)(NCc1cccc2ccccc12)c1cc(Cl)c(Oc2ccc3c(c2)OCO3)s1` [US9617239, BRITE-355233], for which the IC50 (in general, the midpoint of a concentration-inhibition curve) stood at 376 µM.
